{
  "source": "patent US5225531A",
  "about": "“Hexapeptide Lys Gly Ala Gly Asp Val” (Washington University, priority 1992, dated 1993)",
  "system": "human platelet rich plasma",
  "type": "cell-based",
  "method": "Platelet aggregation assay--Aggregation studies using human platelet rich plasma were performed as previously described (20). Briefly, blood from human volunteers who had not taken any antiplatelet drugs in the previous two weeks was collected into 1/10th volume of CCD buffer (100 mM sodium citrate, 136 mM glucose, pH 6.5). The blood was centrifuged for 3 min at 1000×g and the platelet rich plasma (PRP) was transferred to a plastic tube with a plastic pipet. The PRP was adjusted to 2×10^8 platelets/ml with platelet poor plasma (prepared by centrifuging anti-coagulated blood at 2000×g for 15 min) and placed on ice. PRP and control (saline) or test peptides (500 μl) were incubated with 5 μM ADP at 37° C. in a silanized glass cuvette with stirring (900 RPM). The extent of aggregation was monitored with a Payton aggregometer 2 min after the addition of ADP. Inhibition of aggregation for each sample was determined using the following formula: % Inhibition=[…], where Tbase =% of light transmission in PRP, Tagg =% of light transmission in the aggregated PRP sample containing the saline control for peptides, and Tpep =% of light transmission in the aggregated PRP sample containing the peptide inhibitor.",
  "note": "No end group written: not given here.",
  "data": [
    {"sequence": "HHLGGAKGAGDV", "values": [
      {"measurement": "Platelet ID50 (inhibition of platelet aggregation)", "value": "> 100", "unit": "µM"}
    ]}
  ]
}
